Reference: patent publication US20080085885A1, “Inhibition Of Voluntary Ethanol Consumption With Non-Peptidyl Melanocortin-4 Receptor Agonists” (priority 2004, published 2008)
“Also recorded” adds a separate entry of the source.

Columns and labels:
AA rats = AA rats with established ethanol intake; Ploj et al. 2002; cited from earlier work
Male Wistar rats [1] = assay: Maintenance operant ethanol self-administration (animal model of alcohol reward); assay type: in vivo, rat
Description: (§1) FIG. 1. Operant training for oral ethanol across 30 minute test sessions in rats (n=8-10). Rats were trained on a continuous reinforcement (FR-1) schedule using a saccharine fading procedure and once stable levels of ethanol self-administration (10% w/v) were achieved, testing was initiated. Test 1 examined the effects of melanocortin 4 receptor agonist, Compound A, on maintenance levels of ethanol self-administration and Test 2 examined the effects of Compound A on the Alcohol Deprivation Effect (ADE).
FIG. 2. […] Operant training for oral ethanol in 30 minute test sessions in rats (n=8-10). Melanocortin 4 receptor agonist, Compound A, was administered at 0, 5, 10 or 20 mg/kg, po prior to testing. […] The symbol * indicates a significant difference between the vehicle and drug treated groups (p<0.05).
Animals: Male Wistar rats were used in all experiments. Body weight was 180-200 g at the start of the experiments. Rats were housed 2-3 per cage with food and water available ad libitum. Lights were on a 12-hour light/dark cycle, with lights on at 0600. All procedures met the guidelines of the National Institutes of Health Guide for the Care and Use of Laboratory Animals.
Operant Ethanol Self-Administration: Ethanol dilutions (5, 8 and 10% w/v) were prepared with 95% ethyl alcohol and tap water. Saccharin (Sigma Chemical Co., St. Louis, Mo.) was added to water or ethanol solutions to achieve a concentration of 0.2% w/v. Standard operant chambers (Med Associates, VT) housed in sound-attenuated chambers were used for ethanol self-administration. Syringe pumps dispensed ethanol and water into two stainless steel reservoirs mounted 4 cm above the floor of the chamber, centered between the two operant levers. The two retractable levers were located 4.5 cm to either side of the fluid reservoir. Fluid delivery and recording of operant responding were controlled by microcomputer. Rats were trained on a continuous reinforcement fixed-ratio 1 (FR1) schedule to self-administer oral alcohol (10% w/v, 0.1 ml per delivery) or water in 30 minute sessions. […]

Male Wistar rats [2] = assay: Alcohol deprivation effect (ADE) after 10 day deprivation (animal model of alcohol relapse); assay type: in vivo, rat; details: for Alcohol deprivation effect (ethanol consumed after 10 day deprivation): po
Description: as §1
FIG. 3. […] Operant training for oral ethanol in 30 minute test sessions in rats (n=8-10). Following the maintenance self-administration test, rats were rebaselined prior to being confined to their home-cages for a 10 day deprivation period. Melanocortin 4 receptor agonist, Compound A was administered at 0, 5, 10 or 20 mg/kg, po prior to reintroduction to the test chambers following deprivation. […] The symbol * indicates a significant difference between baseline and drug treated groups (p<0.05). The symbol # indicates a significant difference between vehicle treated (ADE) and drug treated groups (p<0.05).
Method: Methods for this experiment were as described in EXAMPLE 3. Following the maintenance ethanol self-administration experiment, rats were re-baselined and once reliable levels of alcohol-reinforced self-administration were achieved, rats were confined to their home cages for a 10-day period. Prior to reintroduction to the test chamber, animals were injected with Compound (0, 5, 10 and 20 mg/kg).

hMC1bR = hMC1bR (Homo sapiens, UniProt Q01726); assay: cAMP functional assay (agonist); assay type: cell-based; details: functional selectivity stated in text; 45 min
Description: Cells (for example, CHO- or L-cells or other eukaryotic cells) expressing a human melanocortin receptor (see e.g. Yang-YK; Ollmann-MM; Wilson-BD; Dickinson-C; Yamada-T; Barsh-GS; Gantz-I; Mol-Endocrinol. 1997 March; 11(3): 274-80) were dissociated from tissue culture flasks by rinsing with Ca and Mg free phosphate buffered saline (14190-136, Life Technologies, Gaithersburg, Md.) and detached following 5 min incubation at 37° C. with enzyme free dissociation buffer (S-014-B, Specialty Media, Lavellette, N.J.). Cells were collected by centrifugation and resuspended in Earle's Balanced Salt Solution (14015-069, Life Technologies, Gaithersburg, Md.) with additions of 10 mM HEPES pH 7.5, 5 mM MgCl2, 1 mM glutamine and 1 mg/ml bovine serum albumin. Cells were counted and diluted to 1 to 5×10^6/mL. The phosphodiesterase inhibitor 3-isobutyl-1-methylxanthine was added to cells to 0.6 mM.
Agonist Assay: Test compounds were diluted in dimethylsulfoxide (DMSO) (10^−5 to 10^−10 M) and 0.1 volume of compound solution was added to 0.9 volumes of cell suspension; the final DMSO concentration was […]. After room temperature incubation for 45 min, cells were lysed by incubation at 100° C. for 5 min to release accumulated cAMP.
cAMP was measured in an aliquot of the cell lysate with the Amersham (Arlington Heights, Ill.) cAMP detection assay (RPA556). […]

Chain of hMC1bR (Q01726 whole entry): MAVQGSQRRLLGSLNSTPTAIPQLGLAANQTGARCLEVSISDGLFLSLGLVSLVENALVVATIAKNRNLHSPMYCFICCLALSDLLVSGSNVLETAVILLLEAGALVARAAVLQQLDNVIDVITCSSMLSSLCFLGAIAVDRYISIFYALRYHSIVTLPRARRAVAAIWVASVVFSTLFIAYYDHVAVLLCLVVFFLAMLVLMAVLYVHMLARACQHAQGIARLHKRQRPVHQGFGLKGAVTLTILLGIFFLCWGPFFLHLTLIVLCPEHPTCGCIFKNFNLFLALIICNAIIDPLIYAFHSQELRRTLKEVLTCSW

Row | EC50 for melanocortin 4 receptor lower than for melanocortin 1 receptor (hMC1bR) | Compound | Voluntary ethanol drinking (AA rats) | Ethanol self-administration (10% w/v), 30 minute session (Male Wistar rats [1]; 20 mg/kg, po, vs vehicle/baseline, p<0.05) | Water consumption (Male Wistar rats [1]; maintenance test, any dose (5, 10, 20 mg/kg, po)) | Reduction of ethanol self administration (Male Wistar rats [1]; male Wistar rats, dose dependent, FIG. 2) | Alcohol deprivation effect (ethanol consumed after 10 day deprivation) (Male Wistar rats [2]; 5 mg/kg) | Alcohol deprivation effect (ethanol consumed after 10 day deprivation) (Male Wistar rats [2]; 10 mg/kg) | Alcohol deprivation effect (ethanol consumed after 10 day deprivation) (Male Wistar rats [2]; 20 mg/kg) | Water consumption (Male Wistar rats [2]; ADE test, any dose (5, 10, 20 mg/kg, po)) | Alcohol deprivation effect, overall statement (Male Wistar rats [2]; male Wistar rats, 10 day forced deprivation, FIG. 3)
1 | – | MTII | significantly reduces voluntary ethanol drinking | – | – | – | – | – | – | – | –
2 | at least 120 fold | CC[C@H](NC(C)=O)c1cc(Cl)ccc1C1CCN(C(=O)C2CN(C(C)(C)C)C[C@H]2c2ccc(F)cc2F)CC1 (stereo partly shown) [Compound A] | – | significant reductions from baseline levels; also recorded: significant reduction in ethanol self-administration | not significantly altered; also recorded: not significantly changed; also recorded: no significant effects on water consumption | approximately 50% | blocking the ADE; also recorded: significant attenuation of the alcohol deprivation effect | blocking the ADE; also recorded: significant attenuation of the alcohol deprivation effect | significant decrease below baseline levels of consumption; also recorded: further reduction below baseline levels | not significantly altered; also recorded: not significantly changed | reduced the increase in ethanol consumption
